Marks after values point to notes of the source that are not given here.
Key:
[1] = volume of distribution, listed under physico-chemical data; source not stated for Vd; cited from earlier work
[2] = Spontaneous drug degradation (T2 control sample analysed at 24 h); details: whole blood control sample drawn at 2 min, kept in EDTA tube at the temperature of the circuits until 24 h; difference in drug recovery between T2 and T2-24; average
[3] = Table 2; Drug Bank online database; cited from earlier work
[4] = neonatal centrifugal-based circuit, volume 200 ml, recovery at 180 min, n = 2; ref Wildschut ([18]); cited from earlier work
[5] = In vitro closed-loop ECMO circuit model: drug recovery / sequestration
[6] = adult centrifugal-based circuit, volume 670 ml, n = 4, ref Shekar ([22]); cited from earlier work
[7] = adult centrifugal-based circuit, volume 800 ml, n = 3, ref Lemaitre ([39]); cited from earlier work
[8] = design: method as in PMID 18048412; details: Drug Bank online database; cited from earlier work

Structure (SMILES)	Vd [1] [L/kg]	Spontaneous degradation [2] [%]	PB % [3] [%]	Mean drug recovery, Medos n [4]	Decrease of drug level after 24 h, ILA active ([5]; ILA active circuit, whole blood primed, 24-h exposure) [%]	Mean drug recovery after 24 h of circulation, r-ML ([5]; MiniLung (infant) circuit, whole blood primed, 700 ml/min, 24 h, dose VOR 40 mg, VAN 54 mg, expected level VOR 117.1, VAN 177.1 mg/L, corrected for spontaneous degradation, plasma, LC-MS/MS (VOR) or immune-assay (VAN), mean (±SD), n = 2 circuits, SD)	Mean drug recovery after 24 h of circulation, r-MLP ([5]; MiniLung petite (neonatal) circuit, whole blood primed, 500 ml/min, 24 h, dose VOR 35 mg, VAN 45 mg, expected level VOR 140, VAN 180 mg/L, corrected for spontaneous degradation, plasma, LC-MS/MS (VOR) or immune-assay (VAN), mean (±SD), n = 3 circuits, SD)	Decrease of drug level after 24 h, XLung ([5]; XLung circuit, whole blood primed, 24-h exposure) [%]	Mean drug recovery after 24 h of circulation, r-XL ([5]; Xlung (adult) circuit, whole blood primed, […], 24 h, dose VOR 68 mg, VAN 91.8 mg, expected level VOR 143.2, VAN 193.7 mg/L, corrected for spontaneous degradation, plasma, LC-MS/MS (VOR) or immune-assay (VAN), mean (±SD), n = 2 circuits, SD)	Mean drug recovery at 24 h, ML ([5]; current experiment, MiniLung circuit, whole blood primed, volume 310 ml, 24 h, n = 2) [%]	Mean drug recovery at 24 h, MLP ([5]; current experiment, MiniLung petite circuit, whole blood primed, volume 250 ml, 24 h, n = 3) [%]	Mean drug recovery at 24 h, Xlung ([5]; current experiment, Xlung circuit, whole blood primed, volume 480 ml, 24 h, n = 2) [%]	Mean drug recovery at 24 h, iLA ([5]; current experiment, iLAActivve circuit, whole blood primed, volume 400 ml, 24 h, n = 2) [%]	Mean drug recovery after 24 h of circulation, r-iLA ([5]; iLAActivve iLA (pediatric) circuit, whole blood primed, […], 24 h, dose VOR 52.5 mg, VAN 67.5 mg, expected level VOR 134.7, VAN 173.2 mg/L, corrected for spontaneous degradation, plasma, LC-MS/MS (VOR) or immune-assay (VAN), mean (±SD), n = 2 circuits)	Mean percentage of drug recovery at 24 h ([5]; mean over all nine whole-blood primed circuits (MLP, ML, iLA, XLung), single bolus, pre-membrane (P2) plasma samples, 24 h, corrected for average spontaneous degradation, LC-MS/MS (voriconazole), immune-assay Architect (vancomycin), samples in triplicate) [%]	Decrease of drug level after 24 h, minilung ([5]; minilung circuit, whole blood primed, 24-h exposure) [%]	Mean drug recovery at 24 h, Quadrox a (Shekar) [6] [%]	Mean drug recovery at 24 h, Quadrox a (Lemaitre) [7] [%]	LogP [8]
CN[C@H](CC(C)C)C(=O)N[C@H]1C(=O)N[C@@H](CC(N)=O)C(=O)N[C@H]2C(=O)N[C@H]3C(=O)N[C@H](C(=O)N[C@H](C(=O)O)c4cc(O)cc(O)c4-c4cc3ccc4O)[C@H](O)c3ccc(c(Cl)c3)Oc3cc2cc(c3O[C@@H]2O[C@H](CO)[C@@H](O)[C@H](O)[C@H]2O[C@H]2C[C@](C)(N)[C@H](O)[C@H](C)O2)Oc2ccc(cc2Cl)[C@H]1O [vancomycin]	0.4 to 1	2.4	50	67.1^* %	38	133.2 (±49.7) mg/L	112 (±31.6) mg/L	50	96.5 (±13.5) mg/L	73	60	48	60	108.5 (±4,4) mg/L	62	25	90	100	
C[C@@H](c1ncncc1F)[C@](O)(Cn1cncn1)c1ccc(F)cc1F [voriconazole]	4.6		58																1.8
